The values below come from patent publication US8604049B2, “4-dimethylamino-phenyl-substituted naphthyridines, and use thereof as medicaments” (Boehringer Ingelheim International GmbH, priority 2008, dated 2013).

Where two headings read alike, the source gives them in different places.

The target in this assay is T1, Recombinant human Syk (GST-Syk kinase fusion protein) (Homo sapiens, UniProt P43405).
T1 construct: made in house
Description: Syk Kinase Test (Kinase Glo luminescence). The format is biochemical. The note with it: read-out: SYK inh % at 1 μM. Here is the method:
The catalytic activity of the GST-Syk kinase fusion protein was determined using the Kinase Glo® Luminescence Kinase test of Messrs Promega. In this homogeneous test the amount of ATP remaining after the kinase reaction has been carried out is quantified by a luciferin-luciferase reaction using luminescence. The luminescence signal obtained correlates with the amount of ATP still present and thus correlates inversely with the activity of the protein kinase.
GST-Syk was diluted to 6.0 nM in the test buffer and 10 μl of this dilution were used in the kinase test (final concentration of Syk=4 nM in a total volume of 15 μl).
Positive controls are the reaction mixtures that contain no test substance; negative controls are reaction mixtures that contain no kinase.
After 60 minutes, 10 μl Kinase-Glo® solution (Promega, Cat. #V6712) (heated to ambient temperature) are added to each well and incubation is continued for a further 15 minutes at ambient temperature.
Data Evaluation and Calculation:
The output file of the “MicroBeta TRILUX” is a text file that contains the well number and measurements obtained. […] Then from this the % inherent value for the measurement of each substance concentration was calculated using an “MS-Excel—VB macro”. […] The IC50 values were calculated from the % inhibition values using “GraphPadPrism” software (Version 5) (GraphPad Software Inc.).

Where [1] appears, read: 1 μM test substance, 4 nM GST-Syk.

With `Cc1cc(-c2cc3ncccc3c(O[C@H]3CC[C@H](O)CC3)n2)ccc1N(C)C` [Example 2], the inhibition at 1 µM under setting [1] was 71.9%.
On to `Cc1cc(-c2cc3ncccc3c(N3CC[C@@H](CN)C3)n2)ccc1N(C)C` [Example 3, 5-(aminomethylpyrrolidin-1-yl)-7-(4-dimethylamino-3-methylphenyl)-[1,6]naphthyridine], for which the inhibition at 1 µM was determined as 88.2%.
Same read-out and setting: in the case of `COc1nc(-c2ccc(N(C)C)c(C)c2)cc2ncccc12` [Example 17, 5-methoxy-7-(4-dimethylamino-3-methylphenyl)-[1,6]naphthyridine] it was 73.2%; in that of `Cc1cc(-c2cc3ncccc3c(-n3cc(CCO)cn3)n2)ccc1N(C)C` [Example 12, 5-(4-hydroxyethyl-pyrazolyl)-7-(4-dimetyhlamino-3-methylphenyl)-[1,6]naphthyridine], 105%; in that of `Cc1cc(-c2cc3ncccc3c(NC3CC3)n2)ccc1N(C)C` [Example 20, 5-(cyclopropylamino)-7-(4-dimethylamino-3-methylphenyl)-[1,6]naphthyridine], 90.2%.
As to `Cc1cc(-c2cc3ncccc3c(NCCc3cn[nH]c3)n2)ccc1N(C)C` [Example 6], the inhibition at 1 µM under setting [1] is 85.2%.
Same read-out and setting: in the case of `Cc1cc(-c2cc3ncccc3c(O[C@H]3CC[C@@H](O)CC3)n2)ccc1N(C)C` [Example 1] it was 85.2%.
